Measured values as given in patent US9745284B2, “2-pyridyloxy-4-ether orexin receptor antagonists” (MERCK SHARP & DOHME CORP., priority 2013, dated 2017).

Legend:
[1] = molecular target: human orexin-2 receptor (Homo sapiens (Human), UniProt O43614); experiment: FLIPR Ca2+ flux assay, orexin-2 receptor; format: cell-based; settings: CHO cells expressing human orexin-2 receptor; agonist 70 pM Ala-6,12 orexin-A; read-out: hOX2R FLIPR IC50
Protocol: The utility of the compounds in accordance with the present invention as orexin receptor OX1R and/or OX2R antagonists may be readily determined without undue experimentation by methodology well known in the art, including the “FLIPR Ca^2+ Flux Assay” (Okumura et al., Biochem. Biophys. Res. Comm. 280:976-981, 2001). In a typical experiment the OX1 and OX2 receptor antagonistic activity of the compounds of the present invention was determined in accordance with the following experimental method. For intracellular calcium measurements, Chinese hamster ovary (CHO) cells expressing the rat orexin-1 receptor or the human orexin-2 receptor, are grown in Iscove's modified DMEM containing 2 mM L-glutamine, […], 1% hypoxanthine-thymidine supplement, 100 U/ml penicillin, 100 μg/ml streptomycin and 10% heat-inactivated fetal calf serum (FCS). The cells are seeded at 20,000 cells/well into Becton-Dickinson black 384-well clear bottom sterile plates coated with poly-D-lysine. All reagents were from GIBCO-Invitrogen Corp. The seeded plates are incubated overnight at 37° C. and 5% CO2. Ala-6,12 human orexin-A as the agonist is prepared as a 1 mM stock solution in 1% bovine serum albumin (BSA) and diluted in assay buffer (HBSS containing 20 mM HEPES, 0.1% BSA and 2.5 mM probenecid, pH7.4) for use in the assay at a final concentration of 70 pM. Test compounds are prepared as 10 mM stock solution in DMSO, then diluted in 384-well plates, first in DMSO, then assay buffer. On the day of the assay, cells are washed 3 times with 100 μl assay buffer and then incubated for 60 min (37° C., 5% CO2) in 60 μl assay buffer containing 1 μM Fluo-4AM ester, 0.02% pluronic acid, and 1% BSA. The dye loading solution is then aspirated and cells are washed 3 times with 100 μl assay buffer. 30 μl of that same buffer is left in each well. Within the Fluorescent Imaging Plate Reader (FLIPR, Molecular Devices), test compounds are added to the plate in a volume of 25 μl, incubated for 5 min and finally 25 μl of agonist is added. Fluorescence is measured for each well at 1 second intervals for 5 minutes and the height of each fluorescence peak is compared to the height of the fluorescence peak induced by 70 pM Ala-6,12 orexin-A with buffer in place of antagonist. For each antagonist, IC50 value (the concentration of compound needed to inhibit 50% of the agonist response) is determined. Alternatively, compound potency can be assessed by a radioligand binding assay (described in Bergman et. al. Bioorg. Med. Chem. Lett. 2008, 18, 1425-1430) in which the inhibition constant (Ki) is determined in membranes prepared from CHO cells expressing either the OX1 or OX2 receptor. The intrinsic orexin receptor antagonist activity of a compound which may be used in the present invention may be determined by these assays.

[2] = molecular target: hOX1R (Homo sapiens, UniProt O43613); experiment: FLIPR Ca2+ flux assay, orexin-1 receptor; format: cell-based; settings: CHO cells expressing orexin-1 receptor; agonist 70 pM Ala-6,12 orexin-A

human orexin-2 receptor, sequence (O43614 whole entry): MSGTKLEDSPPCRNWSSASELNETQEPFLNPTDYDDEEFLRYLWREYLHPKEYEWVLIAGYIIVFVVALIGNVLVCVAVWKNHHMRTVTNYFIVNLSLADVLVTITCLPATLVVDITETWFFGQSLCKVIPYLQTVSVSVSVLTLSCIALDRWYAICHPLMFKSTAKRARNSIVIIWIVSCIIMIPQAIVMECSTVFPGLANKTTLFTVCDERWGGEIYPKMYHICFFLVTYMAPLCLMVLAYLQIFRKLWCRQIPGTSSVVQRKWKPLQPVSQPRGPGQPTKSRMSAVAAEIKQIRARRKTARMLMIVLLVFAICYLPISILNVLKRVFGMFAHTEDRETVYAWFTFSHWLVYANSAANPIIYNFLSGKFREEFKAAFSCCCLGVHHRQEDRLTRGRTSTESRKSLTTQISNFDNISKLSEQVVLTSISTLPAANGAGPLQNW

| Compound | IC50 [1] | IC50 [2] |
| --- | --- | --- |
| CCOc1ccnc(O[C@@H]2CC[C@@H](C)N(C(=O)c3ccccc3-n3nccn3)C2)c1 [Example 1, 4-Ethoxy-2-{[(3R,6R)-6-methyl-1-{[2-(2H-1,2,3-triazol-2-yl)phenyl]carbonyl}piperidin-3-yl]oxy}pyridine] | 20.5 nM | 859 nM |
| COc1ccnc(O[C@@H]2CC[C@@H](C)N(C(=O)c3ccccc3-n3nccn3)C2)c1 [Example 2, 4-methoxy-2-{[(3R,6R)-6-methyl-1-{[2-(2H-1,2,3-triazol-2-yl)phenyl]carbonyl}piperidin-3-yl]oxy}pyridine] | 12.5 nM | 617 nM |
| COc1ccnc(O[C@@H]2CC[C@@H](C)N(C(=O)c3ccccc3-n3nccn3)C2)c1Br [Example 3, 3-bromo-4-methoxy-2-{[(3R,6R)-6-methyl-1-{[2-(2H-1,2,3-triazol-2-yl)phenyl]carbonyl}piperidin-3-yl]oxy}pyridine] | 14.7 nM | 843 nM |
| C[C@@H]1CC[C@@H](Oc2cc(OCc3ccccc3)ccn2)CN1C(=O)c1ccccc1-n1nccn1 [Example 4, 4-(benzyloxy)-2-{[(3R,6R)-6-methyl-1-{[2-(2H-1,2,3-triazol-2-yl)phenyl]carbonyl}piperidin-3-yl]oxy}pyridine] | 59.4 nM | 1850 nM |
| CC(C)Oc1ccnc(O[C@@H]2CC[C@@H](C)N(C(=O)c3ccccc3-n3nccn3)C2)c1 [Example 5, 4-(1-Methylethoxy)-2-{[(3R,6R)-6-methyl-1-{[2-(2H-1,2,3-triazol-2-yl)phenyl]carbonyl}piperidin-3-yl]oxy}pyridine] | 15.1 nM | 669 nM |
| COc1ccnc(O[C@@H]2CC[C@@H](C)N(C(=O)c3ccccc3-n3ncnn3)C2)c1 [Example 6, 4-Methoxy-2-{[(3R,6R)-6-methyl-1-{[2-(2H-tetrazol-2-yl)phenyl]carbonyl}piperidin-3-yl]oxy}pyridine] | 19 nM | 2180 nM |
| CC(C)Oc1ccnc(O[C@@H]2CC[C@@H](C)N(C(=O)c3ccccc3-n3ncnn3)C2)c1 [Example 7, 4-(1-methylethoxy)-2-{[(3R,6R)-6-methyl-1-{[2-(2H-tetrazol-2-yl)phenyl]carbonyl}piperidin-3-yl]oxy}pyridine] | 23 nM | 1200 nM |
| CCOc1ccnc(O[C@@H]2CC[C@@H](C)N(C(=O)c3ccccc3-n3ncnn3)C2)c1 [Example 8, 4-ethoxy-2-{[(3R,6R)-6-methyl-1-{[2-(2H-tetrazol-2-yl)phenyl]carbonyl}piperidin-3-yl]oxy}pyridine] | 35.4 nM | 2010 nM |
| COc1ccnc(O[C@@H]2CC[C@@H](C)N(C(=O)c3cccc(F)c3-n3nccn3)C2)c1 [Example 10, 2-{[(3R,6R)-1-{[3-fluoro-2-(2H-1,2,3-triazol-2-yl)phenyl]carbonyl}-6-methylpiperidin-3-yl]oxy}-4-methoxypyridine] | 14.7 nM | 576 nM |
| COc1ccnc(O[C@@H]2CC[C@@H](C)N(C(=O)c3ccccc3C3CC3)C2)c1 [Example 12, 2-({(3R,6R)-1-[(2-cyclopropylphenyl)carbonyl]-6-methylpiperidin-3-yl}oxy)-4-methoxypyridine] | 11 nM | 938 nM |
| COc1ccnc(O[C@@H]2CC[C@@H](C)N(C(=O)c3ccccc3C(F)(F)F)C2)c1 [Example 13, 4-methoxy-2-{[(3R,6R)-6-methyl-1-{[2-(trifluoromethyl)phenyl]carbonyl}piperidin-3-yl]oxy}pyridine] | 56.2 nM | 1760 nM |
| CCOc1ccccc1C(=O)N1C[C@H](Oc2cc(OC)ccn2)CC[C@H]1C [Example 14, 2-({(3R,6R)-1-[(2-ethoxyphenyl)carbonyl]-6-methylpiperidin-3-yl}oxy)-4-methoxypyridine] | 34.8 nM | 1980 nM |
| COc1ccnc(O[C@@H]2CC[C@@H](C)N(C(=O)c3ccc(OC)nc3-c3ccccc3)C2)c1 [Example 15, 6-methoxy-3-({(2R,5R)-5-[(4-methoxypyridin-2-yl)oxy]-2-methylpiperidin-1-yl}carbonyl)-2-phenylpyridine] | 24.5 nM | 746 nM |
| COc1ccnc(O[C@@H]2CC[C@@H](C)N(C(=O)c3c(F)cccc3-n3nccn3)C2)c1 [Example 17, 2-{[(3R,6R)-1-{[2-fluoro-6-(2H-1,2,3-triazol-2-yl)phenyl]carbonyl}-6-methylpiperidin-3-yl]oxy}-4-methoxypyridine] | 27 nM | 1600 nM |
| COc1ccnc(O[C@@H]2CC[C@@H](C)N(C(=O)c3ccc(OC)nc3-n3nccn3)C2)c1 [Example 18] | 94.5 nM | 10000 nM |
| COc1ccnc(O[C@@H]2CC[C@@H](C)N(C(=O)c3ccc(F)cc3-n3nccn3)C2)c1 [Example 19, 2-{[(3R,6R)-1-{[4-fluoro-2-(2H-1,2,3-triazol-2-yl)phenyl]carbonyl}-6-methylpiperidin-3-yl]oxy}-4-methoxypyridine] | 22.1 nM | 1800 nM |
| COc1ccnc(O[C@@H]2CC[C@@H](C)N(C(=O)c3ccc(OC)cc3-n3nccn3)C2)c1 [Example 20, 4-methoxy-2-{[(3R,6R)-1-{[4-methoxy-2-(2H-1,2,3-triazol-2-yl)phenyl]carbonyl}-6-methylpiperidin-3-yl]oxy}pyridine] | 114 nM | 10000 nM |
| COc1ccnc(O[C@@H]2CC[C@@H](C)N(C(=O)c3ccc(OC)nc3C3CC3)C2)c1 [Example 21, 2-cyclopropyl-6-methoxy-3-({(2R,5R)-5-[(4-methoxypyridin-2-yl)oxy]-2-methylpiperidin-1-yl}carbonyl) pyridine] | 38.3 nM | 8190 nM |
| CC(C)Oc1ccnc(O[C@@H]2CC[C@@H](C)N(C(=O)c3ccc(F)cc3-n3nccn3)C2)c1 [Example 23, 2-{[(3R,6R)-1-{[4-fluoro-2-(2H-1,2,3-triazol-2-yl)phenyl]carbonyl}-6-methylpiperidin-3-yl]oxy}-4-(1-methylethoxy) pyridine] | 41.2 nM | 2140 nM |
| COc1ccc(C(=O)N2C[C@H](Oc3cc(OC(C)C)ccn3)CC[C@H]2C)c(-n2nccn2)c1 [Example 24, 2-{[(3R,6R)-1-{[4-methoxy-2-(2H-1,2,3-triazol-2-yl)phenyl]carbonyl}-6-methylpiperidin-3-yl]oxy}-4-(1-methylethoxy) pyridine] | 136 nM | 10000 nM |
| COc1ccc(C(=O)N2C[C@H](Oc3cc(OC(C)C)ccn3)CC[C@H]2C)c(-n2nccn2)n1 [Example 25, 6-methoxy-3-{[(2R,5R)-2-methyl-5-{[4-(1-methylethoxy)pyridin-2-yl]oxy}piperidin-1-yl]carbonyl}-2-(2H-1,2,3-triazol-2-yl)pyridine] | 110 nM | 10000 nM |
| CC(C)Oc1ccnc(O[C@@H]2CC[C@@H](C)N(C(=O)c3cc(F)ccc3-n3nccn3)C2)c1 [Example 26, 2-{[(3R,6R)-1-{[5-fluoro-2-(2H-1,2,3-triazol-2-yl)phenyl]carbonyl}-6-methylpiperidin-3-yl]oxy}-4-(1-methylethoxy) pyridine] | 37.2 nM | 2480 nM |
| C[C@@H]1CC[C@@H](Oc2cc(OCC(F)F)ccn2)CN1C(=O)c1ccccc1-n1nccn1 [Example 27, (2-(2H-1,2,3-triazol-2-yl)phenyl)((2R,5R)-5-((4-(2,2-difluoroethoxy)pyridin-2-yl)oxy)-2-methylpiperidin-1-yl)methanone] | 12 nM | 1420 nM |
| C[C@@H]1CC[C@@H](Oc2cc(OCC(F)(F)F)ccn2)CN1C(=O)c1ccccc1-n1nccn1 [Example 28, (2-(2H-1,2,3-triazol-2-yl)phenyl)((2R,5R)-2-methyl-5-((4-(2,2,2-trifluoroethoxy)pyridin-2-yl)oxy)piperidin-1-yl)methanone] | 8 nM | 1340 nM |
| COc1ccnc(O[C@@H]2CC[C@@H](C)N(C(=O)c3ccsc3-n3nccn3)C2)c1 [Example 59, 4-methoxy-2-{[(3R,6R)-6-methyl-1-{[2-(2H-1,2,3-triazol-2-yl)thiophen-3-yl]carbonyl}piperidin-3-yl]oxy}pyridine] | 11 nM |  |
